Results from ChEMBL document CHEMBL4414553, “Imidazopyridine-based selective and multifunctional ligands of biological targets associated with psychiatric and neurodegenerative diseases” (Eur J Med Chem, 2019).

Tests used:
[1] = target: T1, Orexin receptor type 2 (Homo sapiens, UniProt O43614); assay: Antagonist activity at human OX2R expressed in CHOK1 cells by Syto62 probe based fluorescence assay; type: cell-based
T1 sequence (O43614 whole entry): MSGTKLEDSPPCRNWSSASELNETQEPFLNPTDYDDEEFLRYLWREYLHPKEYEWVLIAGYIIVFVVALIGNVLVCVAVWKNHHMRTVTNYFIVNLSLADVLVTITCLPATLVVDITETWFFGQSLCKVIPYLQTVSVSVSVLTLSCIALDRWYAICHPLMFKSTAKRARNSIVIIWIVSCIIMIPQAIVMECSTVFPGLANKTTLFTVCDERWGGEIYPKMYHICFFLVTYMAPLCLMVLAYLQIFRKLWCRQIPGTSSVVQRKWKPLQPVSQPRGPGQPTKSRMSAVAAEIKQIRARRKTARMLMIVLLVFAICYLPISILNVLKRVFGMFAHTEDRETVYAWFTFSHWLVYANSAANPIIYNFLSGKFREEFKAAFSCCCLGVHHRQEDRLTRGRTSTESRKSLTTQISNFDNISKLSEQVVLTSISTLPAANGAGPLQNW

[2] = target: T2, Orexin/Hypocretin receptor type 1 (Homo sapiens, UniProt O43613); assay: Antagonist activity at human OX1R expressed in CHOK1 cells by Syto62 probe based fluorescence assay; type: cell-based
T2 sequence (O43613 whole entry): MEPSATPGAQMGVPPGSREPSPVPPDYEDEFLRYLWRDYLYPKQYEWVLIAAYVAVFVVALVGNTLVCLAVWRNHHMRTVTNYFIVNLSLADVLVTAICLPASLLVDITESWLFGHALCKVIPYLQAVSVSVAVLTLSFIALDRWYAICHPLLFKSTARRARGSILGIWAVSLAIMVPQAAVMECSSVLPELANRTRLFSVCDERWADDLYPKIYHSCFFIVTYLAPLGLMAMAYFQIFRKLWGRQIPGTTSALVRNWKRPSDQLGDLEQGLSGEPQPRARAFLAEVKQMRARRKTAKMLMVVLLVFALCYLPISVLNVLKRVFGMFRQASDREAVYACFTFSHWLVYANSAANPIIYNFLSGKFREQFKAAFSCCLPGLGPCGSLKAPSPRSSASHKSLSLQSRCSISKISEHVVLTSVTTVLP

Compound: O=C(c1nccc2[nH]cnc12)N1CCC(F)(F)C(Oc2ccc3ccccc3n2)C1 (configuration not stated)
- IC50 [1]: > 5870 nM
- IC50 [2]: 89 nM
